In general, IC50 refers to the point on the concentration scale where inhibition reaches its midpoint.

Read-outs that look alike come from different tables or passages of the source.

What all share (assay type): cell-based
One experiment concerns the target T1, human TLR7 (Homo sapiens, UniProt Q9NYK1).
T1 construct: host or cells: HEK-Blue cells (HEK293-derived reporter line)
T1 sequence (Q9NYK1 27-1049): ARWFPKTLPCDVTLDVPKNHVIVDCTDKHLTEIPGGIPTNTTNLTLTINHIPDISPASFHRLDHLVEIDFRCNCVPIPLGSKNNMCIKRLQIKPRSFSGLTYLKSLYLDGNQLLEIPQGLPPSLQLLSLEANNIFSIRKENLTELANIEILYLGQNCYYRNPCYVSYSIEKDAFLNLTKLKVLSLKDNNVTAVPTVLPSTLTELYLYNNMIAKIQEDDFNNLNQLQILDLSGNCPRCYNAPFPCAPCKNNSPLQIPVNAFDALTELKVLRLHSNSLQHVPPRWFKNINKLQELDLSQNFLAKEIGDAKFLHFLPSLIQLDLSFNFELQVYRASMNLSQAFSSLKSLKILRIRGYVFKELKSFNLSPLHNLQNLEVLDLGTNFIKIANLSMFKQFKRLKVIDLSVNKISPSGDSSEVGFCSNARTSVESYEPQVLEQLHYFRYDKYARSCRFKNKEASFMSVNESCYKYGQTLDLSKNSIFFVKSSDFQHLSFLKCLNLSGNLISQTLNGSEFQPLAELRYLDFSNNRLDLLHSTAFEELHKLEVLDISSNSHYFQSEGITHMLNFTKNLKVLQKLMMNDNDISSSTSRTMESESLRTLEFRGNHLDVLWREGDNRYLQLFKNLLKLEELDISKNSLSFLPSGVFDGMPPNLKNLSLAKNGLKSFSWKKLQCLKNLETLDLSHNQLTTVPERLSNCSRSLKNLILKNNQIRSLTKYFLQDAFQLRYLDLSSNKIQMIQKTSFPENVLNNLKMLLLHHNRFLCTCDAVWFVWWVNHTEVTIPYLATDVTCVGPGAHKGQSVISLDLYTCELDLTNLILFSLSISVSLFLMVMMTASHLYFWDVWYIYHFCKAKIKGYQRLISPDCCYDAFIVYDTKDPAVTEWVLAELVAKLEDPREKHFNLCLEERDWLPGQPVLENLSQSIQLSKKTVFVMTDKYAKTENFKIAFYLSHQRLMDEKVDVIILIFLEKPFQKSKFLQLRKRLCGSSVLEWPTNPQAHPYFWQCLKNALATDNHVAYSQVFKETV
The experiment can be described thus: TLR7 inhibition reporter assay (HEK-Blue cells, secreted embryonic alkaline phosphatase reporter). As to conditions: HEK-Blue cells overexpressing human TLR7, stimulated with gardiquimod 7.5 μM; read-out: TLR 7 IC50. The method in brief:
(§1)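 Steps: seed receptor-specific HEK-Blue cells; add compound, 0.05 nM–50 μM; wait 30 min at room temperature; add final gardiquimod 7.5 μM, R848 15.9 μM or ODN2006 5 nM for TLR7, TLR8 or TLR9; incubate 22 h at 37 °C; detect NF-κB/AP-1-driven SEAP.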

The target of the next experiment is T2, human TLR8 (Homo sapiens, UniProt Q9NR97).
T2 construct: host or cells: HEK-Blue cells (HEK293-derived reporter line)
T2 sequence (Q9NR97 27-1041): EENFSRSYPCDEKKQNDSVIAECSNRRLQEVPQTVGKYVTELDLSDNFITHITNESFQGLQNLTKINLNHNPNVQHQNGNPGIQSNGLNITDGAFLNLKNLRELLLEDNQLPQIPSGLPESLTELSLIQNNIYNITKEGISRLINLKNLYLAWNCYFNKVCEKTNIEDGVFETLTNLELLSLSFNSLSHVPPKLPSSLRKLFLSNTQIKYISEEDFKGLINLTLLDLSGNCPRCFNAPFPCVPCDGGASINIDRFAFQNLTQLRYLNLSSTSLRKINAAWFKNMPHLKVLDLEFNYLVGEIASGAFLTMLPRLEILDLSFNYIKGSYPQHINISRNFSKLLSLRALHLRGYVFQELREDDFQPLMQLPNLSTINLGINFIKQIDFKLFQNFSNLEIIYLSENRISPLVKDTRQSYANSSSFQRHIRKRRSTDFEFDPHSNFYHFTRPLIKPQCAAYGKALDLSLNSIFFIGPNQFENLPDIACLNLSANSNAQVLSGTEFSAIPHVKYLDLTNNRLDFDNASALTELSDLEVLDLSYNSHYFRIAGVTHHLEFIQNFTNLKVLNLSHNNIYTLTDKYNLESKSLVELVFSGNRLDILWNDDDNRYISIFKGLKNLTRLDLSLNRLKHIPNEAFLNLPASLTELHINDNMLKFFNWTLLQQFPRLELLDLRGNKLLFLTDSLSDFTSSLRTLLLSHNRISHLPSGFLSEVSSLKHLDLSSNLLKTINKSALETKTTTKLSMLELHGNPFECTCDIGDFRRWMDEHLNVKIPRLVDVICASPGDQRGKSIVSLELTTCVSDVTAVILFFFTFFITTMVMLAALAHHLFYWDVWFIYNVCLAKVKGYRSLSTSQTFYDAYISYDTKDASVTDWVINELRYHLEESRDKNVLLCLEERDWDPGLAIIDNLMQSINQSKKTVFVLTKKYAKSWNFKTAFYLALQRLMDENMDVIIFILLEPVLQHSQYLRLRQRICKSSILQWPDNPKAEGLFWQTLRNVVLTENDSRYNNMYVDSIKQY
Nature of the experiment: TLR8 inhibition reporter assay (HEK-Blue cells, secreted embryonic alkaline phosphatase reporter). Particulars: HEK-Blue cells overexpressing human TLR8, stimulated with R848 15.9 μM; read-out: TLR 8 IC50. The method in brief: as §1
On the technique in general: Reporter assays use an easily measured gene product as a stand-in for the process of interest.

The next experiment concerns the target T3, human TLR9 (Homo sapiens, UniProt Q9NR96).
T3 construct: host or cells: HEK-Blue cells (HEK293-derived reporter line)
T3 sequence (Q9NR96 26-1032): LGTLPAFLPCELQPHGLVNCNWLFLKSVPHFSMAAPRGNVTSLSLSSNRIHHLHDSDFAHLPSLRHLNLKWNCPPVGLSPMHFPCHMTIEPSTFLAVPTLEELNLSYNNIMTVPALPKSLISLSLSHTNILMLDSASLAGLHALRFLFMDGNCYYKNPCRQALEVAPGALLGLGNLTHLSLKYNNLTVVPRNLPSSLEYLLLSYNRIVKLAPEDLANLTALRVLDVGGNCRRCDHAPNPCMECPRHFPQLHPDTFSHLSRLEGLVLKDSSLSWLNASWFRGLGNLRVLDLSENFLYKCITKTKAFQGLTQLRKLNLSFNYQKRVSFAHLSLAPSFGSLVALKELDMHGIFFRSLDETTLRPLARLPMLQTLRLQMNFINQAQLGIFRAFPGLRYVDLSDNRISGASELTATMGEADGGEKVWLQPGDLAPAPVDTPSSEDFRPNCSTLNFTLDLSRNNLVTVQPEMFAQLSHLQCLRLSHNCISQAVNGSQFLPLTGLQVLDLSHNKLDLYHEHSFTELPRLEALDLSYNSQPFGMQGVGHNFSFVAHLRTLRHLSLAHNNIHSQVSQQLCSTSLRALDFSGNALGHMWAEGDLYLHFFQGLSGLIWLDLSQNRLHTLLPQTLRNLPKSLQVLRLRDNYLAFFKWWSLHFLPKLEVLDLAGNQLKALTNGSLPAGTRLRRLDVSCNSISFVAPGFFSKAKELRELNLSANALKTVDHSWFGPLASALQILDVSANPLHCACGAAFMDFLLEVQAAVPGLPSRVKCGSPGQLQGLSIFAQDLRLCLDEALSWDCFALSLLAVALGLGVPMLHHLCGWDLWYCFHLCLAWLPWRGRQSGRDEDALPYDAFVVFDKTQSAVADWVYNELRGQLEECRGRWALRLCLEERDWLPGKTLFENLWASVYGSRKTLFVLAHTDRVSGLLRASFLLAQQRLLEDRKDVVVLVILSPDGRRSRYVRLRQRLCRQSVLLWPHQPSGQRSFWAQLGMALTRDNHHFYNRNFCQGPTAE
Nature of the experiment: TLR9 inhibition reporter assay (HEK-Blue cells, secreted embryonic alkaline phosphatase reporter). A digest of the protocol:
as §1

Setting [1] is: HEK-Blue cells overexpressing human TLR9, stimulated with ODN2006 5 nM, 22 hour incubation, reporter readout.
[2] abbreviates: HEK-Blue cells overexpressing human TLR9, stimulated with ODN2006 5 nM, read-out: TLR 9 IC50.

Regarding `Cc1cc(C2CCN(C3CC4CCC(C3)N4CC(C)C)CC2)cc2c1nc(-c1ccc(S(C)(=O)=O)cc1)n2C` (stereo not drawn) [Example 118, 6-(1-(8-isobutyl-8-azabicyclo[3.2.1]octan-3-yl)piperidin-4-yl)-1,4-dimethyl-2-(4-(methylsulfonyl)phenyl)-1H-benzo[d]imidazole], the IC50 at human TLR7 is 19200 nM; at human TLR8, over 25000 nM; against human TLR9 (setting [1]), 120 nM; on human TLR9 (setting [2]) it was 116 nM.
For `Cc1cc(C2CCN(C3CC4CCC(C3)N4CC(C)C)CC2)cc2[nH]c(-c3ccc(S(C)(=O)=O)cc3)nc12` (stereo not drawn) [Example 121, 6-(1-(8-isobutyl-8-azabicyclo[3.2.1]octan-3-yl)piperidin-4-yl)-4-methyl-2-(4-(methylsulfonyl)phenyl)-1H-benzo[d]imidazole], the values for the IC50 on human TLR7, at human TLR8 and against human TLR9 (setting [1]) were 14500 nM, over 25000 nM and 19 nM, respectively.
On to `Cc1cc(C2CCN(C3CCN(C(C)C)CC3)CC2)cc2c1nc(-c1ccc(S(C)(=O)=O)c(F)c1)n2C` [Example 122, 2-(3-fluoro-4-(methylsulfonyl)phenyl)-6-(1′-isopropyl-[1,4′-bipiperidin]-4-yl)-1,4-dimethyl-1H-benzo[d]imidazole], for which the IC50 at human TLR7 was 8900 nM; at human TLR8 it was over 25000 nM; against human TLR9 (setting [1]), 140 nM; at human TLR9 (setting [2]) it was 139 nM.
With `COc1cc(-c2nc3c(C)cc(C4CCN(C5CCN(C(C)C)CC5)CC4)cc3n2C)cn2ncnc12` [Example 125, 6-(6-(1′-isopropyl-[1,4′-bipiperidin]-4-yl)-1,4-dimethyl-1H-benzo[d]imidazol-2-yl)-8-methoxy-[1,2,4]triazolo[1,5-a]pyridine], the IC50 turned out to be 600 nM at human TLR7, 2100 nM at human TLR8 and 28 nM against human TLR9 (setting [1]).
Take `Cc1cc(-c2ccc(N3CCN(C4CCC4)CC3)cc2)cc2c1nc(-c1ccc(S(C)(=O)=O)cc1)n2C` [Example 174, 6-(4-(4-cyclobutylpiperazin-1-yl)phenyl)-1,4-dimethyl-2-(4-(methylsulfonyl)phenyl)-1H-benzo[d]imidazole]: the IC50 on human TLR7 is over 50000 nM; at human TLR8, over 50000 nM; against human TLR9, 480 nM; at human TLR9 (setting [2]), 480 nM.
`CC(C)CN1CCC(N2CCC(c3ccc4nc(-c5ccc(S(C)(=O)=O)cc5)[nH]c4c3F)CC2)CC1` [Example 177, 7-fluoro-6-(1′-isobutyl-[1,4′-bipiperidin]-4-yl)-2-(4-(methylsulfonyl)phenyl)-1H-benzo[d]imidazole]: the 50% inhibitory concentration (IC50) at human TLR7 was over 50000 nM; on human TLR8 it was over 50000 nM; against human TLR9 it was 120 nM; at human TLR9 (setting [2]), 120 nM.
Regarding `CS(=O)(=O)c1ccc(-c2nc3ccc(C4CCN(C5CCN(C6CC6)CC5)CC4)c(F)c3[nH]2)cc1` [Example 178, 6-(1′-cyclopropyl-[1,4′-bipiperidin]-4-yl)-7-fluoro-2-(4-(methylsulfonyl)phenyl)-1H-benzo[d]imidazole], the IC50 on human TLR7 was over 50000 nM; at human TLR8, over 50000 nM; on human TLR9, 240 nM; at human TLR9 (setting [2]) it was 238 nM.
As to `CS(=O)(=O)c1ccc(-c2nc3ccc(C4CCN(C5CCN(CC6CC6)CC5)CC4)c(F)c3[nH]2)cc1` [Example 179, 6-(1′-(cyclopropylmethyl)-[1,4′-bipiperidin]-4-yl)-7-fluoro-2-(4-(methylsulfonyl)phenyl)-1H-benzo[d]imidazole], the IC50 at human TLR7 is over 50000 nM; on human TLR8, over 50000 nM; against human TLR9 it was 180 nM; on human TLR9 (setting [2]), 184 nM.
On to `CS(=O)(=O)c1ccc(-c2nc3ccc(C4CCN(C5CCN(C6CCC6)CC5)CC4)c(F)c3[nH]2)cc1` [Example 180, 6-(1′-cyclobutyl-[1,4′-bipiperidin]-4-yl)-7-fluoro-2-(4-(methylsulfonyl)phenyl)-1H-benzo[d]imidazole], for which the IC50 on human TLR7 was over 50000 nM; on human TLR8, over 50000 nM; on human TLR9, 25 nM.

The values are drawn from patent US12492188B2, “1H-benzo[D]imidazole derivatives as TLR9 inhibitors for the treatment of fibrosis” (BRISTOL-MYERS SQUIBB COMPANY, priority 2020, dated 2025).
